Laboratory results reported in US9334246B2, “Substituted triazines for malaria treatment and chemoprophylaxis” (The United States of America, as represented by the …, priority 2013, dated 2016).

Assays:
Type in all cases: cell-based, Plasmodium falciparum
P. falciparum D6 = test: Malaria SYBR Green Fluorescence Assay, D6 strain
P. falciparum W2 = test: Malaria SYBR Green Fluorescence Assay, W2 strain
P. falciparum C235 = test: Malaria SYBR Green Fluorescence Assay, C235 strain

SMILES	D6 (SYBR Green Assay IC50) (P. falciparum D6) [µg/mL]	W2 (SYBR Green Assay IC50) (P. falciparum W2) [µg/mL]	C235 (SYBR Green Assay IC50) (P. falciparum C235) [µg/mL]
CN1CCN(c2nc(-c3ccc(F)cc3)nc(C(Cl)(Cl)Cl)n2)CC1 [Cmpd 390]	0.495	0.143	0.567
CC1(C)CC(Nc2nc(-c3ccc(F)cc3)nc(C(Cl)(Cl)Cl)n2)CC(C)(C)N1 [Cmpd 391]	0.043	0.019	0.046
COc1ccc(-c2nc(NCC(C)(C)N)nc(C(Cl)(Cl)Cl)n2)cc1OC [Cmpd 396]	0.086	0.049	0.117
COc1ccc(Nc2nc(NCC(C)(C)N)nc(C(Cl)(Cl)Cl)n2)cn1 [Cmpd 403]	0.134	0.078	0.203
ClC(Cl)(Cl)c1nc(NCCN2CCCC2)nc(-c2ccccc2)n1 [Cmpd 405]	0.027	0.016	0.045
ClC(Cl)(Cl)c1nc(NCCCN2CCCC2)nc(-c2ccccc2)n1 [Cmpd 406]	0.077	0.035	0.089
ClC(Cl)(Cl)c1nc(-c2ccccc2)nc(N2CCCNCC2)n1 [Cmpd 408]	0.19	0.084	0.189
CN1CCCN(c2nc(-c3ccccc3)nc(C(Cl)(Cl)Cl)n2)CC1 [Cmpd 409]	0.118	0.043	0.119
CCN1CCC(CNc2nc(-c3ccccc3)nc(C(Cl)(Cl)Cl)n2)CC1 [Cmpd 410]	0.103	0.035	0.113
COc1ccc(-c2nc(N3CCN(CCO)CC3)nc(C(Cl)(Cl)Cl)n2)c2ccccc12 [Cmpd 422]	0.291	0.073	0.31
CN1CCN(c2nc(-c3ccc(N4CCCC4)cc3)nc(C(Cl)(Cl)Cl)n2)CC1 [Cmpd 427]	0.676	0.459	0.877
CCN1CCCC(Nc2nc(-c3ccc(N4CCCC4)cc3)nc(C(Cl)(Cl)Cl)n2)C1 (stereo not drawn) [Cmpd 429]	0.791	0.607	0.912
Clc1cccc(-c2nc(NCCCN3CCCC3)nc(C(Cl)(Cl)Cl)n2)c1 [Cmpd 433]	0.076	0.044	0.145
CN1CCN(c2nc(-c3cccc(Cl)c3)nc(C(Cl)(Cl)Cl)n2)CC1 [Cmpd 436]	0.155	0.019	0.158
CN(C)CCCNc1nc(-c2ccc(S(C)(=O)=O)cc2)nc(C(Cl)(Cl)Cl)n1 [Cmpd 442]	0.002	0.001	0.002
CN(C)CCCNc1nc(-c2ccccc2)nc(C(Cl)(Cl)Cl)n1 [Cmpd 443]	0.145	0.043	0.161
CN(C)CCCNc1nc(-c2ccc(-c3ccccc3)cc2)nc(C(Cl)(Cl)Cl)n1 [Cmpd 445]	0.151	0.116	0.189
Cc1ccc(-c2ccccc2-c2nc(NCCCN(C)C)nc(C(Cl)(Cl)Cl)n2)cc1 [Cmpd 446]	0.482	0.223	0.535
CN(C)CCCNc1nc(-c2ccc(F)cc2)nc(C(Cl)(Cl)Cl)n1 [Cmpd 448]	0.035	0.007	0.04
COc1ccc(-c2nc(NCCCN(C)C)nc(C(Cl)(Cl)Cl)n2)cc1OC [Cmpd 450]	0.239	0.091	0.252

SMILES	D6 (SYBR Green Assay IC50) (P. falciparum D6) [µg/mL]	W2 (SYBR Green Assay IC50) (P. falciparum W2) [µg/mL]	C235 (SYBR Green Assay IC50) (P. falciparum C235) [µg/mL]
Cc1ccc(-c2nc(N3CCCN(CCO)CC3)nc(C(Cl)(Cl)Cl)n2)cc1 [Cmpd 453]	0.173	0.043	0.112
OCCN1CCCN(c2nc(-c3ccc(Cl)c(Cl)c3)nc(C(Cl)(Cl)Cl)n2)CC1 [Cmpd 454]	0.252	0.064	0.118
OCCN1CCCN(c2nc(-c3ccc(Cl)cc3)nc(C(Cl)(Cl)Cl)n2)CC1 [Cmpd 455]	0.214	0.065	0.118
OCCN1CCCN(c2nc(-c3cccc(C(F)(F)F)c3)nc(C(Cl)(Cl)Cl)n2)CC1 [Cmpd 456]	0.207	0.091	0.136
CSc1ccc(-c2nc(N3CCCN(CCO)CC3)nc(C(Cl)(Cl)Cl)n2)cc1 [Cmpd 457]	0.328	0.08	0.168
OCCN1CCCN(c2nc(-c3ccccc3)nc(C(Cl)(Cl)Cl)n2)CC1 [Cmpd 458]	0.172	0.044	0.116
OCCN1CCCN(c2nc(-c3ccc4ccccc4c3)nc(C(Cl)(Cl)Cl)n2)CC1 [Cmpd 459]	0.163	0.108	0.153
COc1ccc(-c2nc(N3CCCN(CCO)CC3)nc(C(Cl)(Cl)Cl)n2)c2ccccc12 [Cmpd 463]	0.355	0.201	0.306
Clc1cccc(-c2nc(NCCc3cnccn3)nc(C(Cl)(Cl)Cl)n2)c1 [Cmpd 472]	0.449	0.051	0.244
CN(CCc1ccccn1)c1nc(-c2cc(Cl)cc(Cl)c2)nc(C(Cl)(Cl)Cl)n1 [Cmpd 474]	0.065	0.208	0.527
COc1cc(OC)cc(-c2nc(NCCN3CCCC3)nc(C(Cl)(Cl)Cl)n2)c1 [Cmpd 476]	0.057	0.023	0.035
COc1cc(OC)cc(-c2nc(NCCCN3CCCC3)nc(C(Cl)(Cl)Cl)n2)c1 [Cmpd 477]	0.077	0.023	0.041
COc1cc(OC)cc(-c2nc(NCCC3CCCN3C)nc(C(Cl)(Cl)Cl)n2)c1 (stereo not drawn) [Cmpd 478]	0.042	0.014	0.022
CCN(CC)CCNc1nc(-c2cc(OC)cc(OC)c2)nc(C(Cl)(Cl)Cl)n1 [Cmpd 479]	0.038	0.012	0.017
COc1cc(OC)cc(-c2nc(NCC(C)(C)N)nc(C(Cl)(Cl)Cl)n2)c1 [Cmpd 481]	0.035	0.012	0.017
COc1cccc(-c2nc(NCC3CCN(C(C)C)CC3)nc(C(Cl)(Cl)Cl)n2)c1 [Cmpd 485]	0.094	0.024	0.045
CC(C)N1CCC(CNc2nc(-c3ccc(Cl)cc3)nc(C(Cl)(Cl)Cl)n2)CC1 [Cmpd 487]	0.064	0.019	0.033
CC(C)N1CCC(CNc2nc(-c3ccc(C(C)(C)C)cc3)nc(C(Cl)(Cl)Cl)n2)CC1 [Cmpd 488]	0.027	0.016	0.02
CC(C)N1CCC(CNc2nc(-c3cccc(C(F)(F)F)c3)nc(C(Cl)(Cl)Cl)n2)CC1 [Cmpd 489]	0.014	0.008	0.01
CSc1ccc(-c2nc(NCC3CCN(C(C)C)CC3)nc(C(Cl)(Cl)Cl)n2)cc1 [Cmpd 490]	0.091	0.049	0.067
